Test results as given in the supplement of paper PMC10307832.

How the values were obtained:
Assay in all cases: relative viability (nuclei count vs DMSO), 5 days (fraction); higher = more cells survive
IU1-47 = compound: CC1=CC(=C(N1C2=CC=C(C=C2)Cl)C)C(=O)CN3CCCCC3 [IU1-47]
Procedure, shortened: (§1)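 Vehicle-anchored 1536-well plates of lung cancer cell lines, held overnight at 37 °C, were pinned with five library-drug doses (not always all listed) spaced by √10. No medium change followed over the next 5 days, after which the cells were fixed, permeabilised and Hoechst-stained together and imaged at 4×. Nuclei were counted with MetaXpress, and viability is treated-well nuclei over vehicle-well nuclei, taken as a median across plates. Plates passed with control CV below 25% and at least one doubling.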

FG-4592 = compound: Cc1nc(C(=O)NCC(=O)O)c(O)c2ccc(Oc3ccccc3)cc12 [FG-4592]
Procedure, shortened: as §1

FG-4592 + Pemetrexed = compound: Cc1nc(C(=O)NCC(=O)O)c(O)c2ccc(Oc3ccccc3)cc12 [FG-4592] + Nc1nc2[nH]cc(CCc3ccc(C(=O)N[C@@H](CCC(=O)O)C(=O)O)cc3)c2c(=O)[nH]1 [Pemetrexed] (partner 0.2 µM)
Procedure, shortened: (§2)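 One day after seeding in 1536-well plates, lung cancer cell lines were dosed by pin tool. Dosing was either single-drug or a fixed anchor-drug dose plus five library-drug doses (not always all listed) in √10 steps. After 5 days, nuclei were stained in one fix-and-stain step and counted on 4× images, and relative viability is the nuclei count of treated wells over that of vehicle wells, given as the median of duplicate plates.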

IU1-47 + Alpelisib = compound: CC1=CC(=C(N1C2=CC=C(C=C2)Cl)C)C(=O)CN3CCCCC3 [IU1-47] + Cc1nc(NC(=O)N2CCC[C@H]2C(N)=O)sc1-c1ccnc(C(C)(C)C(F)(F)F)c1 [Alpelisib] (partner 2 µM)
Procedure, shortened: as §2

Cell Line	relative viability (IU1-47; 0.08 µM)	relative viability (IU1-47; 0.253 µM)	relative viability (IU1-47; 0.8 µM)	relative viability (IU1-47; 8 µM)	relative viability (FG-4592; 0.08 µM)	relative viability (FG-4592; 0.253 µM)	relative viability (FG-4592; 2.53 µM)	relative viability (FG-4592; 8 µM)	relative viability (FG-4592 + Pemetrexed; first compound 0.08 µM)	relative viability (FG-4592 + Pemetrexed; first compound 0.253 µM)	relative viability (FG-4592 + Pemetrexed; first compound 2.53 µM)	relative viability (FG-4592 + Pemetrexed; first compound 8 µM)	relative viability (IU1-47 + Alpelisib; first compound 0.08 µM)	relative viability (IU1-47 + Alpelisib; first compound 0.253 µM)	relative viability (IU1-47 + Alpelisib; first compound 0.8 µM)	relative viability (IU1-47 + Alpelisib; first compound 2.53 µM)	relative viability (IU1-47 + Alpelisib; first compound 8 µM)	relative viability (IU1-47; 2.53 µM)	relative viability (FG-4592; 0.8 µM)	relative viability (FG-4592 + Pemetrexed; first compound 0.8 µM)
NCI-H1355	1.01	1.04	1.03	0.881	0.965	0.922	0.926	0.912	1.07	0.942	1.03	1.05	0.89	0.948	0.894	0.797	0.79	–	–	–
NCI-H1395	0.879	0.953	0.884	0.791	0.86	0.795	0.975	0.761	0.877	0.859	0.768	0.671	1.07	1.01	1.04	–	0.991	0.534	0.672	0.528
NCI-H1437	1.02	0.94	1.08	0.936	1	0.929	0.972	0.822	0.32	0.31	0.32	0.274	1.13	0.967	0.921	1.05	0.718	0.922	0.991	0.349
NCI-H1563	0.985	0.983	1.12	1.05	0.946	0.958	0.988	0.888	0.628	0.732	0.759	0.715	0.909	0.87	0.871	0.942	0.816	0.944	0.922	0.6
NCI-H1651	0.978	0.995	1.01	0.983	0.973	0.941	0.961	0.915	0.591	0.57	0.588	0.508	1.05	1.1	0.899	–	0.597	0.918	0.921	0.583
NCI-H1666	0.953	1.02	0.968	1.01	0.979	0.939	0.913	0.901	0.771	0.836	0.834	0.722	0.882	0.903	0.812	1.03	0.836	0.957	0.953	0.932
NCI-H1734	1.06	1.07	0.981	0.99	0.824	0.939	0.808	0.876	0.407	0.408	0.422	0.397	0.645	0.714	0.65	–	0.708	–	0.717	0.419
NCI-H1755	1.11	1.11	1.09	0.958	0.958	0.941	1.02	1.03	0.417	0.483	0.4	0.453	1.04	1.03	1.03	0.978	0.8	1.04	0.916	0.46
NCI-H1792	0.847	0.796	0.889	0.486	0.763	0.725	0.861	0.868	0.691	0.76	0.619	0.651	0.824	0.708	0.647	0.444	0.55	0.862	0.693	–
NCI-H1793	0.859	0.83	1.04	0.864	0.569	0.812	0.745	0.762	–	0.95	0.833	0.782	0.83	0.683	0.901	–	0.665	–	–	–
NCI-H1915	0.995	0.989	1.04	0.905	0.951	0.959	0.955	1.02	0.469	0.44	0.475	0.477	1.07	1.11	1.13	–	1.07	–	0.918	0.542
NCI-H1944	1.1	1.02	0.947	0.852	0.932	0.872	0.954	0.852	0.608	0.703	0.602	0.606	0.853	0.886	0.903	–	0.847	0.902	0.685	0.567
NCI-H1975	0.963	0.943	1.06	0.842	1	0.881	0.839	0.861	0.27	0.293	0.268	0.307	0.684	0.619	0.708	0.659	0.444	0.968	0.9	0.292
NCI-H1993	0.927	1.07	0.856	0.914	0.987	0.925	0.827	0.78	0.644	0.48	0.487	0.594	0.753	0.728	0.657	0.725	0.594	0.974	0.64	–
NCI-H2009	1	1	1.02	1.04	1.03	0.958	0.902	0.953	1.01	1.16	1.02	1.06	1.24	1.18	1.13	1.18	1.21	0.842	1	1
NCI-H2023	0.951	0.949	1.06	1.27	0.919	0.866	0.922	0.88	0.228	0.198	0.232	0.217	0.6	0.531	0.511	0.627	0.519	0.851	0.857	0.244
NCI-H2085	1.05	0.998	0.973	0.954	1	0.955	0.965	1.02	0.934	0.769	0.863	1.07	1.04	0.973	1.02	0.975	0.856	1.01	0.934	0.81
